Assay: Water solubility of spray dried product (qualitative)
Format: physicochemical
Excerpt: Clear beads, some of them vitrified, were obtained. The major portion of these ranged in size from 10 to 20 microns; the largest particles were about 80 microns. The residual moisture of the spray dried material ranged from 0.35 to 0.55 percent and the bulk density from 540 to 600 grams/liter. Higher bulk densities can be obtained by increasing the operating temperature. Because of the good water solubility of the products being dried, the spray drying apparatus can be cleaned quite easily.
Clear beads in the range of 10 to 100 microns are obtained. The residual moisture of the spray dried material is less than 0.3%.

With C=C(C)C(=O)[O-].[Na+] [Sodium methacrylate] the “water solubility (in words)” value was “readily water soluble”.

Assay: Water solubility at 20° C.
Excerpt: Of special interest are the salts of acrylic and methacrylic acid and also of maleic acid, fumaric acid, and itaconic acid, and more particularly the alkali metal salts, and especially the sodium, potassium, and lithium salts; the alkaline earth metal salts, and especially the magnesium, calcium, strontium, and barium salts; the salts of subgroups I and II of the periodic table, and especially the copper and zinc salts; the salts of main and subgroup IV (Ge, Sn, Pb, Ti, Zr, Hf), and especially the germanium, tin, lead, titanium, and zirconium salts; the salts of subgroup VIII (Fe, Ru, Os, Co, Rh, Ir, Ni, Pd, Pt), and especially the iron, cobalt, and nickel salts; the salts of main and subgroups V ((As, Sb, Bi, V, Nb, Ta) and of subgroup VII (Mn, Tc, Re), and especially the antimony, bismuth, vanadium, and manganese salts; and the ammonium salts, including those derived from ammonium cations of the formula [drawing 1] wherein R1 and R2 are hydrogen or an alkyl group having from 1 to 18 carbon atoms, and preferably from 1 to 5 carbon atoms, and R3 and R4 are hydrogen or an alkyl group having from 1 to 18 carbon atoms, and preferably from 1 to 6 carbon atoms, or wherein R3 and R4, optionally with inclusion of one or two further hetero atoms such as nitrogen, oxygen, or sulfur, form a five- or six-membered heterocyclic system.

Compared with C=C(C)C(=O)[O-].[Li+] [Lithium methacrylate], C=C(C)C(=O)[O-].[K+] [Potassium methacrylate] is higher in “Water solubility at 20° C.” value: 87.5 g/salt/100 g water for the first, 101.8 g/salt/100 g water for the second.

Compared with C=C(C)C(=O)O [Strontium dimethacrylate], C=C(C)C(=O)[O-].[Na+] [Sodium methacrylate] is higher in “Water solubility at 20° C.” value: 27.5 g/salt/100 g water for the first, 95.3 g/salt/100 g water for the second.

For C=C(C)C(=O)O [Barium dimethacrylate], the “Water solubility at 20° C.” value was 40.5 g/salt/100 g water.

— patent US4614827A, “Method for isolating vinyl salt compounds from aqueous solutions” (Rohm GmbH, priority 1983, dated 1986)
